US20070287630A1, “Moisturizing agent with nutrients” (DriWater, Inc., priority 2006, published 2007)

Conditions: acetic acid acting as a preservative in the gel

effect on gel degradation in soil: slow gel degradion in soil
Structure (SMILES): CC(=O)O [acetic acid]
